Laboratory results published in patent US20160361250A1, “ACTIVE INGREDIENTS STIMULATING TYPE 2 AND/OR TYPE 3 HUMAN BETA-DEFENSINS AND COSMETIC OR PHARMACEUTICAL COMPOSITIONS CONTAINING SUCH ACTIVE INGREDIENTS” (BASF Beauty Care Solutions France S.A.S., priority 2002, published 2016).

Columns and labels:
[1] = test system: hBD3; assay: Quantitative RT-PCR of hBD3 expression, 2nd step (dose-effect); format: cell-based, human; details: for hBD3 expression, percentage of the control: 16 h, untreated control = 100%
Protocol: (§1) The actives are then tested on 5 concentrations (from 0.001% to max viability) in quadruplicate on normal human keratinocytes as a monolayer on 96-well culture plates, in a specific medium enriched with calcium and free of serum (CaCl2 1.7 mM) (same conditions as in example 1).
(§2) After 16 h, the supernatants are collected and cells are dry frozen at −80° C. after rinsing in PBS.
(§3) Total RNA are extracted using a 96-well extraction kit on silica columns and assayed using a 96-well spectrophotometer at 260 and 280 nm. RNA are diluted to 5 ng/μL.
(§4) Quantitative RT-PCR in 96 wells on actin, hBD2 and hBD3 is initially carried out on 50 ng of RNA, using a one-step kit containing Sybrgreen, in a fluorescence thermocycler with the same primers as previously (0.5 μM). The amplification program is as follows: 50° C., 30 min; 94° C., 15 min; (94° C., 15 s; 60° C., 30 s; 72° C., 30 s)×50 cycles; 90° C., 1 min; 30° C., 1 min; 50° C. to 95° C. (10 s every ° C.); 14° C., infinite.
(§5) A study of the fusion graphs makes it possible to verify the specificity of amplified products. The fluorescence graph as a function of the number of cycles gives the C(T) value corresponding to the number of cycles needed to obtain initiation of the fluorescence signal. The more an mRNA is expressed, the lower the C(T) value. Calculation of Sgene=(½)^C(T) for each RNA takes into consideration the exponential increase in the number of copies during amplification. The Sgene hBD2/Sgene actin and Sgene hBD3/Sgene actin ratios can be compared with those of the untreated control to give the percentage stimulation produced.
(§6) Quantitative RT-PCR makes it possible to obtain a basal value for the defensin expression for untreated controls. The results are therefore expressed as a percentage of the control. IL8, IL1 and MIP3 cytokine levels are given as pg/mL/RNA concentration (in ng/μL).
(§7) In the same way as in example 2, retinoic acid and retinol were tested for their capacity to stimulate hBD2 and/or hBD3.

[2] = test system: hBD2; assay: Quantitative RT-PCR of hBD2 expression, 2nd step (dose-effect); format: cell-based, human; details: for hBD2 expression, percentage of the control: 16 h, untreated control = 100%
Protocol: as §1, §2, §3, §4, §5, §6, §7

[3] = test system: human volunteers; details: in vivo
[4] = test system: animals; details: in vivo

Structure (SMILES) | effect on hBD3 (in words) ([1]; 0.01%) | hBD3 expression, percentage of the control ([1]; conc. 0.01%) | effect on hBD2 (in words) ([2]; 0.01%) | hBD2 expression, percentage of the control ([2]; conc. 0.01%) [%] | irritation / allergy, irritant or sensitizing potential (in words) [3] | irritation / allergy, primary skin irritation (in words) [4] | hBD3 expression, percentage of the control ([1]; conc. 0.005%) [%] | hBD2 expression, percentage of the control ([2]; conc. 0.005%) [%]
CC1=C(/C=C/C(C)=C/C=C/C(C)=C/CO)C(C)(C)CCC1 [Retinol] | strongly stimulates hBD3 | 17 562% | weakly stimulates hBD2 | 168 | not inducing any inflammatory, irritation or intolerance reaction | not inducing any inflammatory, irritation or intolerance reaction |  | 
CC1=C(/C=C/C(C)=C/C=C/C(C)=C/C(=O)O)C(C)(C)CCC1 [Retinoic acid] |  |  |  |  | not inducing any inflammatory, irritation or intolerance reaction | not inducing any inflammatory, irritation or intolerance reaction | 161 | 26
